Measurements: US9944607B2, “Thiohydantoin derivatives and uses thereof” (Whitehead Institute for Biomedical Research, priority 2012, dated 2018)
Values after ≈ are worked out from the molar mass of the structure shown. Like-named read-outs stand apart in the source and are kept apart here. Values belong to the compound of their own block, whether it stands above or below them.

Key:
Candida albicans CaCi-2 = test: Primary assay: C. albicans CaCi-2 growth inhibition (Alamar Blue); type: cell-based; conditions: n = 3, 48 hours, tested up to 26 μM; for IC50: read-out: Growth Inhibition Activity, IC50 (μM), C. albicans (n = 3) CaCi-2
Candida albicans CaCi-17 = test: Primary assay: C. albicans CaCi-17 growth inhibition (Alamar Blue); type: cell-based; conditions: n = 3, 48 hours, tested up to 26 μM
[1] = system: NIH-3T3 mammalian fibroblasts; test: Counterscreen mammalian cell toxicity assay (Alamar Blue); type: cell-based, murine; conditions: n = 1, 48 hours, tested up to 26 μM
Experimental: Quiescent murine fibroblasts were subjected to incubation with compounds of interest for 48 hours. Subsequent cell viability was determined via measuring Alamar Blue fluorescence.
Procedures • After overnight culture, pin compounds into wells at 100 nL/well using the CyBio CyBi-Well pinning instrument. • Return the plates to the tissue culture incubator and incubate the culture for an additional 48 hours at 37° C. under 5% CO2. • At the completion of this incubation, add Alamar Blue solution diluted 1:40 in PBS to each well (10 μL/well) to achieve a final dilution of 1:200. • Incubate the plates for an additional 2-3 hours at 37° C. under 5% CO2. • Read the Relative Fluorescence Intensity (RFU) of wells on a standard plate reader as a measure of relative cell growth. […] 4.4.

physchem = conditions: for solubility at 24 h: phosphate buffered saline with 1% DMSO, pH 7.4, aqueous buffer, kinetic from dmso stock
Experimental: Solubility was determined in phosphate buffered saline (PBS) pH 7.4 with 1% DMSO. Each compound was prepared in duplicate at 100 μM in both 100% DMSO and PBS with 1% DMSO. Compounds were allowed to equilibrate at room temperature with a 250 rpm orbital shake for 24 hours. After equilibration, samples were analyzed by UPLC-MS (Waters, Milford, Mass.) with compounds detected by SIR detection on a single quadrupole mass spectrometer. The DMSO samples were used to create a two-point calibration curve to which the response in PBS was fit.

[2] = read-out: Growth Inhibition Activity, IC50 (μM), 3T3 Fibroblasts (n = 1), Table 4
[3] = Table 4, PBS pH 7.4 with 1% DMSO, 24 hours, room temperature

SMILES: CCOC(=O)N1C(=O)C2(CCCCC2)N(c2ccc(OC)cc2)C1=S [compound 56604819]
- IC50 (Candida albicans CaCi-2; Table 4): 1.8 µM
- Growth Inhibition Activity, IC50 (μM), C. albicans (n = 3) CaCi-17 (Candida albicans CaCi-17; Table 4): inactive
- Growth Inhibition Activity, IC50 (μM), 3T3 Fibroblasts (n = 1) ([1]; Table 4): Inactive
- PBS Solubility (physchem; pH 7.4): <1.0 µM

SMILES: CC(C)N1C(=S)NC(=O)C12CCCCC2 [compound 56604820]
- Growth Inhibition Activity, IC50 (μM), C. albicans (n = 3) CaCi-2 (Candida albicans CaCi-2; Table 7): inactive
- Growth Inhibition Activity, IC50 (μM), C. albicans (n = 3) CaCi-17 (Candida albicans CaCi-17; Table 7): inactive
- Growth Inhibition Activity, IC50 (μM), 3T3 Fibroblasts (n = 1) ([1]; Table 7): Inactive
- solubility at 24 h (physchem): 32 µM (≈ 7.24 µg/mL)

SMILES: CCOC(=O)N1C(=O)N(c2ccc(C)cc2)C2(CCCCC2)C1=O [compound 56604827]
- Growth Inhibition Activity, IC50 (μM), C. albicans (n = 3) CaCi-2 (Candida albicans CaCi-2; Table 6): inactive
- Growth Inhibition Activity, IC50 (μM), C. albicans (n = 3) CaCi-17 (Candida albicans CaCi-17; Table 6): inactive
- Growth Inhibition Activity, IC50 (μM), 3T3 Fibroblasts (n = 1) ([1]; Table 6): Inactive
- solubility at 24 h (physchem): 55 µM (≈ 18.2 µg/mL)

SMILES: CCOC(=O)N1C(=S)NC(=O)C12CCCCC2 [compound 56604829]
- Growth Inhibition Activity, IC50 (μM), C. albicans (n = 3) CaCi-2 (Candida albicans CaCi-2; Table 7): inactive
- Growth Inhibition Activity, IC50 (μM), C. albicans (n = 3) CaCi-17 (Candida albicans CaCi-17; Table 7): inactive
- Growth Inhibition Activity, IC50 (μM), 3T3 Fibroblasts (n = 1) ([1]; Table 7): Inactive
- solubility at 24 h (physchem): > 100 µM

SMILES: CCOC(=O)N1C(=O)C2(CCCCC2)N(c2ccc(CC)cc2)C1=S [compound 56604836]
- IC50 (Candida albicans CaCi-2; Table 4): 1.9 µM
- Growth Inhibition Activity, IC50 (μM), C. albicans (n = 3) CaCi-17 (Candida albicans CaCi-17; Table 4): inactive
- IC50 [1, 2]: 19.5 µM
- PBS Solubility (physchem; [3]): <1.0 µM

SMILES: CCOC(=O)N1C(=O)C2(CCCCC2)N(c2ccc(C(C)(C)C)cc2)C1=S [compound 56604837]
- Growth Inhibition Activity, IC50 (μM), C. albicans (n = 3) CaCi-2 (Candida albicans CaCi-2; Table 4): inactive
- Growth Inhibition Activity, IC50 (μM), C. albicans (n = 3) CaCi-17 (Candida albicans CaCi-17; Table 4): inactive
- IC50 [1, 2]: 16.5 µM
- PBS Solubility (physchem; [3]): <1.0 µM

SMILES: CCCOC(=O)N1C(=O)C2(CCCCC2)N(c2ccc(C)cc2)C1=S [compound 56604849]
- IC50 (Candida albicans CaCi-2; Table 3): 1.2 µM
- Growth Inhibition Activity, IC50 (μM), C. albicans (n = 3) CaCi-17 (Candida albicans CaCi-17; Table 3): inactive
- Growth Inhibition Activity, IC50 (μM), 3T3 Fibroblasts (n = 1) ([1]; Table 3): Inactive
- PBS Solubility (physchem; Table 3, PBS pH 7.4 with 1% DMSO, 24 hours, room temperature): <1.0 µM

SMILES: CCOC(=O)N1C(=O)C(C)(C)N(c2ccc(C)cc2)C1=S [compound 56604873]
- Growth Inhibition Activity, IC50 (μM), C. albicans (n = 3) CaCi-2 (Candida albicans CaCi-2; Table 5): inactive
- Growth Inhibition Activity, IC50 (μM), C. albicans (n = 3) CaCi-17 (Candida albicans CaCi-17; Table 5): inactive
- Growth Inhibition Activity, IC50 (μM), 3T3 Fibroblasts (n = 1) ([1]; Table 5): Inactive

Further lines, with some results ahead:

- Growth Inhibition Activity, IC50 (μM), C. albicans (n = 3) CaCi-2 (Candida albicans CaCi-2; Table 4): inactive
- Growth Inhibition Activity, IC50 (μM), C. albicans (n = 3) CaCi-17 (Candida albicans CaCi-17; Table 4): inactive
- PBS Solubility (physchem; pH 7.4): 61 µM
SMILES: CCOC(=O)N1C(=O)C2(CCCCC2)NC1=S [compound 56604830]
- Growth Inhibition Activity, IC50 (μM), 3T3 Fibroblasts (n = 1) ([1]; Table 4): Inactive

- Growth Inhibition Activity, IC50 (μM), C. albicans (n = 3) CaCi-2 (Candida albicans CaCi-2; Table 3): inactive
- Growth Inhibition Activity, IC50 (μM), C. albicans (n = 3) CaCi-17 (Candida albicans CaCi-17; Table 3): inactive
- PBS Solubility (physchem; pH 7.4): 6.6 µM
SMILES: Cc1ccc(N2C(=S)N(C)C(=O)C23CCCCC3)cc1 [compound 56604835]
- Growth Inhibition Activity, IC50 (μM), 3T3 Fibroblasts (n = 1) ([1]; Table 3): Inactive

- Growth Inhibition Activity, IC50 (μM), C. albicans (n = 3) CaCi-2 (Candida albicans CaCi-2; Table 7): inactive
- Growth Inhibition Activity, IC50 (μM), C. albicans (n = 3) CaCi-17 (Candida albicans CaCi-17; Table 7): inactive
- solubility at 24 h (physchem): > 100 µM
SMILES: O=C1NC(=S)NC12CCCCC2 [compound 56604841]
- Growth Inhibition Activity, IC50 (μM), 3T3 Fibroblasts (n = 1) ([1]; Table 7): Inactive

- IC50 (Candida albicans CaCi-2; Table 5): 9.8 µM
- Growth Inhibition Activity, IC50 (μM), C. albicans (n = 3) CaCi-17 (Candida albicans CaCi-17; Table 5): inactive
- PBS Solubility (physchem; pH 7.4): 9.2 µM
SMILES: CCOC(=O)N1C(=O)C2(CCCC2)N(c2ccc(C)cc2)C1=S [compound 56604843]
- Growth Inhibition Activity, IC50 (μM), 3T3 Fibroblasts (n = 1) ([1]; Table 5): Inactive

- Growth Inhibition Activity, IC50 (μM), C. albicans (n = 3) CaCi-2 (Candida albicans CaCi-2; Table 7): inactive
- Growth Inhibition Activity, IC50 (μM), C. albicans (n = 3) CaCi-17 (Candida albicans CaCi-17; Table 7): inactive
- solubility at 24 h (physchem): < 1 µM
SMILES: Cc1ccc(N2CC(=O)NC2=S)cc1 [compound 56604844]
- IC50 ([1]; Mus musculus, NIH3T3, read-out: Growth Inhibition Activity, IC50 (μM), 3T3 Fibroblasts (n = 1), Table 7): 20.7 µM

- Growth Inhibition Activity, IC50 (μM), C. albicans (n = 3) CaCi-2 (Candida albicans CaCi-2; Table 6): inactive
- Growth Inhibition Activity, IC50 (μM), C. albicans (n = 3) CaCi-17 (Candida albicans CaCi-17; Table 6): inactive
- solubility at 24 h (physchem): 100 µM (≈ 27.2 µg/mL)
SMILES: Cc1ccc(N2C(=O)N(C)C(=O)C23CCCCC3)cc1 [compound 56604845]
- Growth Inhibition Activity, IC50 (μM), 3T3 Fibroblasts (n = 1) ([1]; Table 6): Inactive

- Growth Inhibition Activity, IC50 (μM), C. albicans (n = 3) CaCi-2 (Candida albicans CaCi-2; Table 6): inactive
- Growth Inhibition Activity, IC50 (μM), C. albicans (n = 3) CaCi-17 (Candida albicans CaCi-17; Table 6): inactive
- solubility at 24 h (physchem): < 1 µM
SMILES: CCOC(=O)N1C(=S)N(c2ccc(C)cc2)C(=O)C12CCCCC2 [compound 56604852]
- Growth Inhibition Activity, IC50 (μM), 3T3 Fibroblasts (n = 1) ([1]; Table 6): Inactive

- Growth Inhibition Activity, IC50 (μM), C. albicans (n = 3) CaCi-2 (Candida albicans CaCi-2; Table 7): inactive
- Growth Inhibition Activity, IC50 (μM), C. albicans (n = 3) CaCi-17 (Candida albicans CaCi-17; Table 7): inactive
- solubility at 24 h (physchem): 5.9 µM (≈ 1.62 µg/mL)
SMILES: Cc1ccc(N2C(=O)C3(CCCCC3)NC2=S)cc1 [compound 56604856]
- Growth Inhibition Activity, IC50 (μM), 3T3 Fibroblasts (n = 1) ([1]; Table 7): Inactive
